According to ChEMBL document CHEMBL1157377, “Atorvastatin is 10-fold more active in vitro than other statins against Plasmodium falciparum” (Antimicrob Agents Chemother, 2007):

What was measured:
[1] = system: Plasmodium falciparum; experiment: Antiplasmodial activity against chloroquine-resistant Plasmodium falciparum W2; type: functional, organism-based
[2] = system: Plasmodium falciparum; experiment: Antiplasmodial activity against chloroquine-sensitive Plasmodium falciparum IMT031; type: functional, organism-based
[3] = system: Plasmodium falciparum; experiment: Antiplasmodial activity against chloroquine-resistant Plasmodium falciparum FCR3; type: functional, organism-based
[4] = system: Plasmodium falciparum; experiment: Antiplasmodial activity against chloroquine-sensitive Plasmodium falciparum D6; type: functional, organism-based
[5] = system: Plasmodium falciparum; experiment: Antiplasmodial activity against chloroquine-sensitive Plasmodium falciparum 3D7; type: functional, organism-based
[6] = system: Plasmodium falciparum; experiment: Antiplasmodial activity against chloroquine-resistant Plasmodium falciparum Bre1; type: functional, organism-based
[7] = system: L6; experiment: Toxicity against rat L6 cells assessed as induction of cell death at 100 uM; type: cell-based; settings: l6, 100 µM

SMILES	IC50 ([1]; Plasmodium falciparum, W2) [µM]	IC50 [2] [µM]	IC50 [3] [µM]	IC50 [4] [µM]	IC50 [5] [µM]	IC50 ([6]; Plasmodium falciparum, Bre1) [µM]	IC50 [1] [µM]	IC50 [6] [µM]	IC90 ([1]; Plasmodium falciparum, W2) [µM]	IC90 [2] [µM]	IC90 [3] [µM]	IC90 [4] [µM]	IC90 [5] [µM]	IC90 ([6]; Plasmodium falciparum, Bre1) [µM]	Activity [7] [%]
CC[C@H](C)C(=O)O[C@H]1C[C@H](O)C=C2C=C[C@H](C)[C@H](CC[C@@H](O)C[C@@H](O)CC(=O)O)[C@H]21 [PRAVASTATIN SODIUM]	> 200	> 200	> 200	> 200	> 200	> 200	–	–	–	–	–	–	–	–	–
CC[C@H](C)C(=O)O[C@H]1CCC=C2C=C[C@H](C)[C@H](CC[C@@H](O)C[C@@H](O)CC(=O)O)[C@H]21 [listing 1 of 2 here]	–	> 200	> 200	> 200	> 200	> 200	88.5	–	–	–	–	–	–	–	–
CCC(C)(C)C(=O)O[C@H]1C[C@@H](C)C=C2C=C[C@H](C)[C@H](CC[C@@H]3C[C@@H](O)CC(=O)O3)[C@H]21 [SIMVASTATIN]	> 200	> 200	> 200	> 200	> 200	> 200	–	–	–	–	–	–	–	–	–
CC[C@H](C)C(=O)O[C@H]1CCC=C2C=C[C@H](C)[C@H](CC[C@@H](O)C[C@@H](O)CC(=O)O)[C@H]21 [listing 2 of 2 here]	–	–	–	–	–	–	> 200	102	–	–	–	–	–	–	–
CC[C@H](C)C(=O)O[C@H]1C[C@@H](C)C=C2C=C[C@H](C)[C@H](CC[C@@H](O)C[C@@H](O)CC(=O)O)[C@H]21	103	57.8	43.9	44.3	95.3	52.6	–	–	–	–	–	–	–	–	–
CC(C)c1c(C(=O)Nc2ccccc2)c(-c2ccccc2)c(-c2ccc(F)cc2)n1CC[C@@H](O)C[C@@H](O)CC(=O)O [ATORVASTATIN CALCIUM]	4.8	5.3	5.1	5.8	11.8	5.8	–	–	14.8	15.8	23.6	18.1	39	24	–
CCC(C)(C)C(=O)O[C@H]1C[C@@H](C)C=C2C=C[C@H](C)[C@H](CC[C@@H](O)C[C@@H](O)CC(=O)O)[C@H]21	58.9	36.9	76.7	51.3	69.8	48.4	–	–	–	–	–	–	–	–	–
CC(C)c1c(C(=O)Nc2ccccc2)c(-c2ccccc2)c(-c2ccc(F)cc2)n1CC[C@@H](O)C[C@@H](O)CC(=O)O [ATORVASTATIN]	–	–	–	–	–	–	–	–	–	–	–	–	–	–	27
CC(C)n1c(/C=C/C(O)CC(O)CC(=O)O)c(-c2ccc(F)cc2)c2ccccc21 (stereo not drawn) [FLUVASTATIN SODIUM]	90.2	87.1	116	92.3	108	92.5	–	–	–	–	–	–	–	–	–
CC[C@H](C)C(=O)O[C@H]1CCC=C2C=C[C@H](C)[C@H](CC[C@@H]3C[C@@H](O)CC(=O)O3)[C@H]21 [MEVASTATIN]	> 200	> 200	> 200	> 200	> 200	> 200	–	–	–	–	–	–	–	–	–
CC[C@H](C)C(=O)O[C@H]1C[C@@H](C)C=C2C=C[C@H](C)[C@H](CC[C@@H]3C[C@@H](O)CC(=O)O3)[C@H]21 [LOVASTATIN]	> 200	> 200	> 200	> 200	> 200	> 200	–	–	–	–	–	–	–	–	–
